From patent US8809344B2, “Compounds, compositions, and methods for control of hepatitis C viral infections” (priority 2008, dated 2014)

Columns and labels:
[1] = test system: parental genotype 1b (Con1 strain) subgenomic reporter replicon; assay: Parental genotype 1b reporter replicon IVT RNA in Huh7.5 cells; type: cell-based; conditions: Hepatitis C virus
From the text: To identify nucleotide changes that confer resistance to 80978, replicon RNA was reverse transcribed and amplified from total RNA extracted from 80978-resistant and control Clone A cells. […] One silent mutation at amino acid 1771 was also observed. Each mutation was introduced independently into a stable genotype 1b (Con1 strain) subgenomic reporter replicon plasmid via site-directed mutagenesis. […] The sequence of the wild type NS4B encoding sequence is provided as SEQ ID NO:1, the sequence of the mutated NS4B nucleotide sequence encoding the F1809V mutation is provided as SEQ ID NO:3, and the sequence of the mutated NS4B nucleotide sequence encoding the F1809L mutation is provided as SEQ ID NO:5. The sequence of the wild type NS4B protein is provided as SEQ ID NO:2, the sequence of the mutated NS4B protein with the F1809V mutation is provided as SEQ ID NO:4, and the sequence of the mutated NS4B nucleotide sequence encoding the F1809L mutation is provided as SEQ ID NO:6. […] A differential response was observed between cells electroporated with different replicon RNAs.

[2] = test system: stable genotype 1b subgenomic replicon (Con1 strain); assay: Clone II cells, HCV RNA by blot hybridization normalized to β-actin RNA; type: cell-based; conditions: Hepatitis C virus, 72 h
Description: Inhibition of HCV replication by compound AP0080978 (enantiomer 2 from Example 1) was also assayed by exposing cells harboring either HCV genotype 1a, HCV genotype 1b, HCV genotype 2a replicons. […] Final DMSO percentage was 1% in a total volume of 1 ml. After a 72 hour treatment period, total RNA was extracted, quantified via RiboGreen™ assay (Invitrogen-Molecular Probes, Eugene, Oreg., USA), and equivalent amounts of RNA were subjected to quantitative RT-PCR to quantify HCV RNA levels. Activity against genotype 1b was re-confirmed using Clone II cells (U.S. Pat. No. 7,049,428) that contain a stable subgenomic replicon (Con1 strain) with a Arg 1164 Gly adaptive mutation that is distinct from the Ser 1179 Ile adaptive mutation present in Clone VI cells. In this assay, cells were seeded into 96-well plates and treated in quadruplicate with varying concentration of compounds for 72 hours. For each replicate culture, HCV RNA levels were measured by blot hybridization and normalized to β-actin RNA levels. Cytotoxicity was measured using an established neutral red dye uptake assay (Korba and Gerin (1992) Antiviral Res 19:55; Okuse et al (2005) Antiviral Res 65: 23). […] Activity and toxicity against genotype 2a was evaluated in Huh7 cells harboring a stable hRluc-containing subgenomic genotype 2a replicon containing sequence from both J6 and JFH1 strains. […]

[3] = test system: genotype 2a replicon encoding genotype 1b NS4B amino acids 53 to 218; assay: Chimeric genotype 1b/2a replicon (NS4B aa 53 to 218 from 1b) in Huh7.5 cells; type: cell-based, hepatitis C virus
From the text: That NS4B is the target of 80978 was confirmed by a complementary approach. The differential response to 80978 by HCV genotype 1b and 2a replicons allowed the use of chimeric replicons to narrow down the region of the HCV genotype 1b NS4B coding region that confers sensitivity to 80978. The nucleotide sequence of the wild type HCV genotype 2a NS4B is provided as SEQ ID NO: 7 and the wild type HCV genotype 2a NS4B protein sequence is provided as SEQ ID NO:8. Using a plasmid containing an 80978-resistant stable HCV genotype 2a subgenomic reporter replicon cDNA, six replacement, or chimeric constructs were made, where the regions encoding the following amino acids of NS4B were replaced with the regions encoding the corresponding amino acids of NS4B from HCV genotype 1b: (i) 7-254, (ii) 7-52, (iii) 53-254, (iv) 219-254, (v) 7-52 and 219-254, and (vi) 53 to 218. The full-length NS4B protein is 261 amino acids in length and is provided as SEQ ID NO:2. Thus, if any of these segments of NS4B from genotype 1b are sufficient to confer 80978-sensitivity to a genotype 2a HCV replicon, it will render the chimeric genotype 1b/genotype 2a replicon sensitive to the compound.
Response to 80978 was measured initially in unselected cells. […] All of the chimeric and wild type control constructs were responsive to Cyclosporin A (CsA).

O=C(NCc1cccs1)c1nn2c(c1Cl)N[C@H](c1ccco1)C[C@@H]2C(F)(F)F (single isomer, unassigned) [Compound 80978]
EC50 [1]: 0.29 µM
EC50 [2]: 7.3 µM
response to 80978 ([3]; Geneticin-selected stable replicon-containing cells, amino acids 53-218): responsive
EC50 ([3]; Hepatitis C virus, Huh7.5): < 2.5 µM
